Laboratory results from patent publication US4283494A, “Microbial lipase, process for its preparation and microbiologically pure culture therefor” (Meito Sangyo Kabushiki Kaisha, priority 1978, dated 1981).
Where two headings read alike, the source gives them in different places.

Key:
[1] = test system: microbial lipase of the invention, Alcaligenes sp. PL-679 Meito (FERM-P No. 3783, ATCC 31371); conditions: 10 min
[2] = test system: Lipase II of Japanese Laid-Open Patent Publication No. 21387/77, Alcaligenes sp. PL-266 Meito; conditions: cited from earlier work
[3] = test system: Lipase I of Japanese Laid-Open Patent Publication No. 21387/77, Alcaligenes sp. PL-266 Meito; conditions: cited from earlier work
[4] = test system: microbial lipase of the invention, Alcaligenes sp. PL-679 Meito (FERM-P No. 3783, ATCC 31371); experiment: Lipase activity inhibition by inhibiting reagents (contact at 37° C. for 10 minutes, then olive oil emulsion assay); format: biochemical; conditions: inhibiting reagent 10^-2 mole, lipase about 3 U/ml
Procedure: An aqueous solution of the lipase sample (about 3 units/ml) is contacted with each of the inhibiting agents at 37° C. for 10 minutes, and the lipase activity is measured.
The lipase in a concentration of about 3 U/ml is contacted with various inhibiting reagents at 37° C. for 10 minutes, and then the lipase activity is measured.
Glycine buffer (1 mole, pH 8.7): 2.0 ml
Olive oil emulsion: 2.5 ml
The olive oil emulsion is prepared by adding 20 g of olive oil to 180 ml of a 10% aqueous solution of gum arabic, homogenizing the mixture at 11,000 r.p.m. for 15 minutes while it is cooled to 5°-10° C., and adjusting the pH of the homogenized mixture to 8.7.
The reaction mixture is placed in a 25 ml glass stopper tube, and reacted exactly for 10 minutes at 37° C. Then, the reaction is stopped by adding 1 ml of 2 N sulfuric acid, and 15 ml of a mixture of n-heptane and isopropanol in a ratio of 11:4 is added. The mixture is vigorously shaken for 30 seconds, and allowed to stand for more than 30 minutes. […] The mixture is treated in the same way as above, and the resulting product is titrated with a potassium hydroxide solution, and the measured value obtained is substracted from the measured value obtained above. The amount of fatty acid liberated is calculated from the resulting titration value with reference to the standard line prepared by using a known amount of palmitic acid. […]

[5] = concentration of bile salt 0.2%
[6] = concentration of bile salt 0.4%
[7] = concentration of bile salt 0.6%
[8] = concentration of bile salt 0.8%

Compound	Lipase activity, percentage based on the lipase activity in the absence of a bile salt [1, 5]	Lipase activity, percentage based on the lipase activity in the absence of a bile salt [1, 6]	Lipase activity, percentage based on the lipase activity in the absence of a bile salt [1, 7]	Lipase activity, percentage based on the lipase activity in the absence of a bile salt [1, 8]	also measured
C[C@H](CCC(=O)O)[C@H]1CC[C@H]2[C@@H]3[C@H](O)C[C@@H]4C[C@H](O)CC[C@]4(C)[C@H]3C[C@H](O)[C@]12C [Cholate]	197%	221%	211%	229%	–
O=C(O)CI [monoiodoacetic acid]	–	–	–	–	Activity inhibition by monoiodoacetic acid ([2]; concentration 10^-3 mole): Not inhibited; Activity inhibition by monoiodoacetic acid ([3]; concentration 10^-3 mole): Not inhibited
O=C1O[C@H]([C@@H](O)CO)C([O-])=C1O.[Na+] [sodium ascorbate]	–	–	–	–	Activity inhibition by sodium ascorbate ([2]; concentration 10^-2 mole): Not inhibited; Activity inhibition by sodium ascorbate ([3]; concentration 10^-2 mole): Not inhibited
II [iodine]	–	–	–	–	Activity inhibition of the lipase [4]: about 95%
CCOC(=O)OC(=O)OCC [ethoxyformic anhydride]	–	–	–	–	Activity inhibition of the lipase [4]: about 70%
C[C@H](CCC(=O)O)[C@H]1CC[C@H]2[C@@H]3CC[C@@H]4C[C@H](O)CC[C@]4(C)[C@H]3C[C@H](O)[C@]12C [Desoxycholate]	289%	300%	305%	303%	–
C[C@H](CCC(=O)NCC(=O)O)[C@H]1CC[C@H]2[C@@H]3[C@H](O)C[C@@H]4C[C@H](O)CC[C@]4(C)[C@H]3C[C@H](O)[C@]12C [Glycocholate]	218%	221%	232%	224%	–
